Reference: patent US10004718B2, “Erythropoietin expression promoter” (TOHOKU UNIVERSITY, priority 2012, dated 2018)

How the values were obtained:
[1] = test system: mouse erythropoietin gene promoter; test: Luciferase reporter assay of erythropoietin gene promoter in Hep3B cells; type: cell-based; settings: for effect on erythropoietin gene promoter transcriptional activity compared with HIF activator FG-4592: compound 10 μM vs FG-4592 10 μM, 20% O2; for transcription level of the erythropoietin gene promoter: compound 10 μM, 20% O2, 48 hours, vs 20% O2/DMSO
Protocol: A plasmid vector HE-mPro-luc for luciferase assay on the promoter activity of the 5′ upstream transcriptional regulatory region of the mouse erythropoietin gene was prepared by cleaving, with restriction enzymes XbaI and SacI, a region having a length from −571 to +53 bp starting at the translation initiation site of exon 1 of the mouse erythropoietin gene, and inserting this region to a luciferase reporter vector pXP2 (Nordeen S K. BioTechniques. 6: […], 1988).
The Hep3B cells were adjusted to 10×10^4 cells/well in a 24-well cell culture plate and subcultured. Under microscopy, the Hep3B cells that reached a cell density of 70 to 80% were transfected with the plasmid DNA for luciferase reporter assay. The composition of a solution for transfection was prepared by mixing 2 μg of HE-mPro-luc, 50 ng of pRh-TK (manufactured by Promega K.K.), and 2 μl of Lipofectamine 2000 (manufactured by Invitrogen Corp.) with 100 μl of OptiMEM-I (manufactured by Life Technologies, Inc./GIBCO) per well, followed by incubation at room temperature for 20 minutes. The solution was added to the Hep3B cells in the 24-well cell culture plate preincubated in 0.5 ml of serum-free OptiMEM-I medium, and then incubated for 4 hours without serum and antibiotics under conditions of 37° C. and 5% CO2/20% O2. Then, the medium was replaced with RPMI1640 common medium 1 supplemented with each of 5 types of compounds (compounds #2, 4, 5, 18, and 21) at a concentration of 10 μM, followed by further incubation for 48 hours under conditions of 37° C. and 5% CO2/20% O2. Then, the medium was replaced with 0.5 ml of serum-free PBS, and the cells were gently washed, followed by the removal of PBS by suction. This operation was carried out twice. Then, 100 μl of passive lysis buffer (manufactured by Promega K.K.) was added thereto, and the cells were lysed by mixing at room temperature for 20 minutes. Hep3B cells cultured in the absence of the compound (DMSO added [1%]) (“20% O2/DMSO” of FIG. 3) were used as a negative control. Hep3B cells cultured in the presence of an HIF activator (FG-4592 [10 μM]) (“20% O2/FG4592” of FIG. 3) and Hep3B cells cultured under hypoxia (1% O2) conditions and in the absence of the compound (DMSO added [1%]) (“1% O2/DMSO” of FIG. 3) were used as positive controls.
Dual Luciferase Reporter Assay System (manufactured by Promega K.K.) was used in the luciferase reporter assay. The amounts of firefly and Renilla luciferases were measured using a luminometer Lumat LB9507 (manufactured by BERTHOLD TECHNOLOGIES GmbH & Co. KG). The amount of Fire fly luciferase was divided by the amount of Renilla luciferase to calculate the transcriptional activity of the erythropoietin gene.

HIF-α = HIF-α concentration in Hep3B cells (Total HIF-1α Cell-Based ELISA); design: species or system human; settings: compound 10 μM, 20% O2, 24 hours
Protocol: The Hep3B cells were seeded at 1×10^4 cells/well to a 24-well cell culture plate and then cultured under normal oxygen (20% O2) for 24 hours. Each of 3 types of compounds (compounds #4, 21, and 35) was mixed at a concentration of 10 μM into RPMI1640 common medium 1. After further culture under normal oxygen (20% O2) for 24 hours, the concentration of HIF-α produced in the medium was measured using Total HIF-1 α Cell-Based ELISA Kit (manufactured by R&D Systems, Inc.). Hep3B cells cultured in the absence of the compound (DMSO added [1%]) (“Control” of FIG. 5) were used as a negative control. Hep3B cells cultured in the presence of HIF activators (FG-4592 [10 μM], DMOG [10 μM], and ciclopirox[10 μM]) (“FG”, “DMOG”, and “Ciclo”, respectively, of FIG. 5) were used as positive controls.

[2] = Liver function in mice (plasma GOT, GPT, erythropoietin); type: in vivo, mouse; settings: oral, 7 consecutive days
Protocol: Compound #4 (10 mg/100 μl of DMSO) (10 μl) and compound #4 (20 mg/100 μl of DMSO) (15 μl) were mixed with 190 μl and 185 μl, respectively, of corn oil to prepare low-concentration (5 μg/ml) compound #4 and high-concentration (15 μg/ml) compound #4 mixed solutions (200 μl each). Each mixed solution (200 μl) was orally administered to each mouse (C57BL/6N 8 W, male, 21-25 g) between 15:00 to 18:00 every day using a sonde. This administration was carried out for 7 consecutive days (n=4). Mice orally given DMSO were used as controls (n=4).
24 hours after the final administration, each mouse was cervically dislocated, and 500 μl of blood was collected from the heart. Then, an anticoagulant (10 μl of heparin) was added thereto, and the resulting blood was centrifuged (12000 rpm×20 min, 4° C.) to isolate plasma. The plasma concentrations of indexes for liver functions (GOT [glutamic oxaloacetic transaminase] and GPT [glutamic pyruvic transaminase]) were measured using Transaminase CII-Test Wako (manufactured by Wako Pure Chemical Industries, Ltd.) to examine the effect of improving liver functions. Also, the plasma concentration ([…]) of erythropoietin was measured using a kit (Quantikine Mouse/Rat Epo Immunoassay, manufactured by R&D Systems, Inc.).

Hep3B cells = test: Cytotoxicity, cell survival rate of Hep3B cells (Cell Counting Kit-8); type: cell-based, human
Protocol: The Hep3B cells were seeded at 1×10^4 cells/well to a 24-well cell culture plate and then cultured under normal oxygen (20% O2) for 24 hours. […] After further culture under normal oxygen (20% O2) for 24 hours, the number of live cells was measured using Cell Counting Kit-8 (manufactured by Dojindo Laboratories) to calculate the survival rate of the cells. Hep3B cells cultured in the absence of the compound (DMSO added [1%]) (“DMSO” of FIG. 9) and Hep3B cells cultured in the presence of HIF activators (DMOG [10 μM] and ciclopirox[10 μM]) (“DMOG” and “Ciclopirox”, respectively, of FIG. 9) were used as controls.

Compound	effect on erythropoietin gene promoter transcriptional activity compared with HIF activator FG-4592 [1]	transcription level of the erythropoietin gene promoter [1]	HIF-α concentration in the Hep3B cells (HIF-α)	erythropoietin concentration in the mouse plasma ([2]; low concentration (5 μg/ml) and high concentration (15 μg/ml))	GOT concentration in the plasma ([2]; mice)	GPT concentration in the plasma ([2]; mice)	cell survival rate compared with cells cultured in the absence of the compound (DMSO) (Hep3B cells; 0.5 μM compound, 24 hours)	cell survival rate compared with cells cultured using 0.5 μM compound (Hep3B cells; 100 μM compound, 24 hours)	cell survival rate compared with cells cultured using 0.5 μM compound (Hep3B cells; 1, 5, or 10 μM compound, 24 hours)	cytotoxicity (Hep3B cells; concentration ranging from 0 to 10 μM)
O=C(CC(C(=O)O)c1c[nH]c2ccccc12)c1ccc(F)cc1F (stereo not drawn) [compound #5, 4-(2,4-Difluorophenyl)-2-(1H-indol-3-yl)-4-oxo-butanoic acid]	superior to the effect of the existing HIF activator (FG-4592)	increase the transcription level	–	–	–	–	–	–	–	–
O=C(O)C(CCCC(F)(F)C(F)(F)F)c1c[nH]c2ccccc12 (stereo not drawn) [compound #21, α-(4,4,5,5,5-Pentafluoro-1-pentyl)-3-indoleacetic acid]	superior to the effect of the existing HIF activator (FG-4592)	increase the transcription level	increase the HIF-α concentration	–	–	–	–	–	–	–
O=C(CC(C(=O)O)c1c[nH]c2ccccc12)c1ccc(F)cc1 (stereo not drawn) [compound #4, 4-(4-Fluorophenyl)-2-(1H-indol-3-yl)-4-oxo-butanoic acid]	superior to the effect of the existing HIF activator (FG-4592)	increase the transcription level	increase the HIF-α concentration	elevate the erythropoietin concentration	lower	lower	almost the same	approximately 70%	rarely different	hardly exhibit cytotoxicity
